Test results published in paper PMC12219900, “Mechanistic insights into Bcs1-mediated mitochondrial membrane translocation of the folded Rieske protein” (The EMBO Journal, 2025).

How the values were obtained:
[1] = molecular target: T1, yBcs1 (Bcs1 heptamer) (Saccharomyces cerevisiae, UniProt P32839); assay: cryo-EM structure; BN-PAGE shift; type: binding; details: 2 mM ATPγS, 2.5 mM MgCl2, pH 7.5, 25 °C; all seven AAA sites; two states ATPγS1 (9GSN) and ATPγS2 (9GU9)
T1 construct: full length 1-456, N-terminal 6xHis-FLAG-3C tag (cleavage not described), expressed in S. cerevisiae W303 bcs1delta, digitonin-solubilised, SEC in GDN, homoheptamer about 700 kDa on BN-PAGE
T1 sequence (P32839 1-456): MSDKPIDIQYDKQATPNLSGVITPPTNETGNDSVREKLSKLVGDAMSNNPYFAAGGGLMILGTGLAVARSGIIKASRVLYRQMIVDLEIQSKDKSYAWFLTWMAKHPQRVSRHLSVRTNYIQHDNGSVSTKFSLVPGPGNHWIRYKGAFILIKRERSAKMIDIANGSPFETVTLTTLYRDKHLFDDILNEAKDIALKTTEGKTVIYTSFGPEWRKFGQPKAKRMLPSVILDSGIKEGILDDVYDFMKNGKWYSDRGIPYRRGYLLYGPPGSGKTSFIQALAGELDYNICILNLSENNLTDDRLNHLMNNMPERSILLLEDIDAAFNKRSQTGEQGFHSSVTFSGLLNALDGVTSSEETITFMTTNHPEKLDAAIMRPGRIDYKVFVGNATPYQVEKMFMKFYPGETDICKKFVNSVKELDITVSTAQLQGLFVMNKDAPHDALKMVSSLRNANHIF

[2] = molecular target: T2, Bcs1-ATPγS2-Rip1-FeS (Saccharomyces cerevisiae, UniProt P32839); assay: cryo-EM structure; type: binding; details: Rip1-FeS added before 2 mM ATPγS, 2.5 mM MgCl2, pH 7.5, 25 °C; map only (EMD-51562)
T2 construct: Bcs1 heptamer (His6-FLAG-3C, from yeast) preloaded with E. coli-expressed Rip1-FeS (aa 83-215; TwinStrep tag, 3C-treated; plasmid named Rip1 delta81); with Cytochrome b-c1 complex subunit Rieske, mitochondrial
T2 sequence (P32839 1-456): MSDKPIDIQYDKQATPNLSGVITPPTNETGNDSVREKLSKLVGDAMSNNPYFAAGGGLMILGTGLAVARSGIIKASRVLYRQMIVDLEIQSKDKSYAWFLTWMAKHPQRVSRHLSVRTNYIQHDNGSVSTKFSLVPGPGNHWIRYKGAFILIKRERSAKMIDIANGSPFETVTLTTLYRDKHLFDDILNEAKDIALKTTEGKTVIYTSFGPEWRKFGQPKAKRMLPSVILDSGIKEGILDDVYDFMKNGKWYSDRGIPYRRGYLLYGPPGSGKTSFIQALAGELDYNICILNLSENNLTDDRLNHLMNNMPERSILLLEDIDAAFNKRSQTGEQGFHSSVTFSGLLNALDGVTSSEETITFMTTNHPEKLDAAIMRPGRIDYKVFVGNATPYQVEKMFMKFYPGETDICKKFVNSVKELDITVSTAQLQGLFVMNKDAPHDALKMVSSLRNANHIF
T2 sequence (P08067 83-215 partner): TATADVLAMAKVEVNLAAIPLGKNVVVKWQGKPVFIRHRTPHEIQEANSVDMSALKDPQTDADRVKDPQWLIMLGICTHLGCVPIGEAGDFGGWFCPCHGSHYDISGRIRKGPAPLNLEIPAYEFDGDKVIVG

[3] = molecular target: the molecule itself; assay: cryo-EM structure; Bcs1 first incubated with Rip1-FeS in BN-buffer with 2.5 mM MgCl2 for 10 min at 25 °C, then 2 mM ATPγS for 10 min; ATPγS2 state

Nc1ncnc2c1ncn2[C@@H]1O[C@H](COP(=O)(O)OP(=O)(O)OP(O)(O)=S)[C@@H](O)[C@H]1O [ATPγS]
cryo-EM structure; BN-PAGE shift [1]: ATPγS density was observed in each of the seven protomers as well
cryo-EM structure [2]: with all seven ATP-binding pockets exhibiting ATPγS density

B1: Bcs1 (yeast Bcs1 heptamer) (enzyme, S. cerevisiae, UniProt P32839 1-456, looked up)
chain: MSDKPIDIQYDKQATPNLSGVITPPTNETGNDSVREKLSKLVGDAMSNNPYFAAGGGLMILGTGLAVARSGIIKASRVLYRQMIVDLEIQSKDKSYAWFLTWMAKHPQRVSRHLSVRTNYIQHDNGSVSTKFSLVPGPGNHWIRYKGAFILIKRERSAKMIDIANGSPFETVTLTTLYRDKHLFDDILNEAKDIALKTTEGKTVIYTSFGPEWRKFGQPKAKRMLPSVILDSGIKEGILDDVYDFMKNGKWYSDRGIPYRRGYLLYGPPGSGKTSFIQALAGELDYNICILNLSENNLTDDRLNHLMNNMPERSILLLEDIDAAFNKRSQTGEQGFHSSVTFSGLLNALDGVTSSEETITFMTTNHPEKLDAAIMRPGRIDYKVFVGNATPYQVEKMFMKFYPGETDICKKFVNSVKELDITVSTAQLQGLFVMNKDAPHDALKMVSSLRNANHIF
notes: Bcs1, S. cerevisiae, YDR375C, residues 1-456 (coding region of the gene); N-terminal 6xHis-FLAG-3C tag; no cleavage with 3C protease is described for Bcs1; AAA ATPase that forms heptameric rings; also called yBcs1; bc1 synthesis 1
stoichiometry N [3]: 7
